Experimental data as given in ChEMBL document CHEMBL4665836, “Overcoming β-Lactam resistance in Pseudomonas aeruginosa using non-canonical tobramycin-based antibiotic adjuvants” (2020).

Legend:
Type in all cases: functional
[1] = system: Pseudomonas aeruginosa; test: Potentiation of aztreonam-induced antibacterial activity against carbapenem and colistin-resistant Pseudomonas aeruginosa 101243 clinical isolate assessed as aztreonam MIC at 8 uM by checkerboard assay (reference value: 32 ug/ml)
[2] = system: Pseudomonas aeruginosa; test: Potentiation of aztreonam-induced antibacterial activity against wild type Pseudomonas aeruginosa PAO1 assessed as fold reduction in aztreonam MIC at 8 uM
[3] = system: Pseudomonas aeruginosa; test: Potentiation of ceftazidime-induced antibacterial activity against carbapenem-resistant Pseudomonas aeruginosa 262-101856 clinical isolate assessed as ceftazidime MIC at 8 uM by checkerboard assay (reference value: 16 ug/ml)
[4] = system: Pseudomonas aeruginosa; test: Potentiation of imipenem-induced antibacterial activity against carbapenem-resistant Pseudomonas aeruginosa 86052 clinical isolate assessed as imipenem MIC at 8 uM by checkerboard assay (reference value: 32 ug/ml)
[5] = system: Pseudomonas aeruginosa; test: Potentiation of aztreonam-induced antibacterial activity against carbapenem-resistant Pseudomonas aeruginosa 108590 clinical isolate assessed as fold reduction in aztreonam MIC at 8 uM in presence of beta-lactamase inhibitor, avi-bactam
[6] = system: Pseudomonas aeruginosa; test: Potentiation of imipenem-induced antibacterial activity against carbapenem-resistant Pseudomonas aeruginosa PAO750 harboring mexAB-oprM/mexCD-oprJ/mexEF-oprN/mexJK/mexXY/opmH efflux deficient mutant assessed as imipenem MIC at 8 uM by checkerboard assay (reference value: 4 ug/ml)
[7] = system: Pseudomonas aeruginosa; test: Potentiation of ceftazidime-induced antibacterial activity against carbapenem and colistin-resistant Pseudomonas aeruginosa 114228 clinical isolate assessed as ceftazidime MIC at 8 uM by checkerboard assay (reference value: 8 ug/ml)
[8] = system: Pseudomonas aeruginosa; test: Potentiation of imipenem-induced antibacterial activity against carbapenem-resistant Pseudomonas aeruginosa 109084 clinical isolate assessed as fold reduction in imipenem MIC at 8 uM in presence of beta-lactamase inhibitor, rele-bactam
[9] = system: Pseudomonas aeruginosa; test: Potentiation of ceftazidime-induced antibacterial activity against carbapenem and colistin-resistant Pseudomonas aeruginosa 101243 clinical isolate assessed as ceftazidime MIC at 8 uM by checkerboard assay (reference value: 64 ug/ml)
[10] = system: Pseudomonas aeruginosa; test: Potentiation of ceftazidime-induced antibacterial activity against carbapenem-resistant Pseudomonas aeruginosa PAO750 harboring and mexAB-oprM/mexCD-oprJ/mexEF-oprN/mexJK/mexXY/opmH efflux deficient mutant assessed as ceftazidime MIC at 8 uM by checkerboard assay (reference value: 0.5 ug/ml)
[11] = system: Pseudomonas aeruginosa; test: Potentiation of aztreonam-induced antibacterial activity against carbapenem-resistant Pseudomonas aeruginosa 260-97103 clinical isolate assessed as aztreonam MIC at 8 uM by checkerboard assay (reference value: 64 ug/ml)
[12] = system: Pseudomonas aeruginosa; test: Potentiation of aztreonam-induced antibacterial activity against carbapenem-resistant Pseudomonas aeruginosa 107092 clinical isolate assessed as aztreonam MIC at 8 uM by checkerboard assay (reference value: 64 ug/ml)
[13] = system: Pseudomonas aeruginosa; test: Potentiation of imipenem-induced antibacterial activity against carbapenem-resistant Pseudomonas aeruginosa 260-97103 clinical isolate assessed as imipenem MIC at 8 uM by checkerboard assay (reference value: 16 ug/ml)
[14] = system: Pseudomonas aeruginosa; test: Potentiation of aztreonam-induced antibacterial activity against carbapenem-resistant Pseudomonas aeruginosa PAO200 harboring mexAB-oprM efflux deficient mutant assessed as aztreonam MIC at 8 uM by checkerboard assay (reference value: 0.25 ug/ml)
[15] = system: Pseudomonas aeruginosa; test: Potentiation of ceftazidime-induced antibacterial activity against carbapenem-resistant Pseudomonas aeruginosa 108590 clinical isolate assessed as ceftazidime MIC at 8 uM by checkerboard assay (reference value: 32 ug/ml)
[16] = system: Pseudomonas aeruginosa; test: Potentiation of aztreonam-induced antibacterial activity against carbapenem and colistin-resistant Pseudomonas aeruginosa 114228 clinical isolate assessed as aztreonam MIC at 8 uM by checkerboard assay (reference value: 32 ug/ml)
[17] = system: Pseudomonas aeruginosa; test: Potentiation of imipenem-induced antibacterial activity against wild type Pseudomonas aeruginosa PAO1 assessed as fold reduction in imipenem MIC at 8 uM
[18] = system: Pseudomonas aeruginosa; test: Potentiation of imipenem-induced antibacterial activity against carbapenem-resistant Pseudomonas aeruginosa 262-101856 clinical isolate assessed as imipenem MIC at 8 uM by checkerboard assay (reference value: 32 ug/ml)
[19] = system: Pseudomonas aeruginosa; test: Potentiation of imipenem-induced antibacterial activity against carbapenem-resistant Pseudomonas aeruginosa 107092 clinical isolate assessed as imipenem MIC at 8 uM by checkerboard assay (reference value: 64 ug/ml)
[20] = system: Pseudomonas aeruginosa; test: Potentiation of ceftazidime-induced antibacterial activity against carbapenem-resistant Pseudomonas aeruginosa 88949 clinical isolate assessed as fold reduction in ceftazidime MIC at 8 uM in presence of beta-lactamase inhibitor, avi-bactam
[21] = system: Pseudomonas aeruginosa; test: Potentiation of imipenem-induced antibacterial activity against wild-type Pseudomonas aeruginosa PAO1 assessed as imipenem MIC at 8 uM by checkerboard assay (reference value: 4 ug/ml)
[22] = system: Pseudomonas aeruginosa; test: Potentiation of ceftazidime-induced antibacterial activity against carbapenem-resistant Pseudomonas aeruginosa 259-96918 clinical isolate expressing metallo-beta-lactamase assessed as ceftazidime MIC at 8 uM by checkerboard assay (reference value: 512 ug/ml)
[23] = system: Pseudomonas aeruginosa; test: Potentiation of aztreonam-induced antibacterial activity against carbapenem-resistant Pseudomonas aeruginosa 259-96918 clinical isolate expressing metallo-beta-lactamase assessed as aztreonam MIC at 8 uM by checkerboard assay (reference value: 32 ug/ml)
[24] = system: Pseudomonas aeruginosa; test: Potentiation of ceftazidime-induced antibacterial activity against carbapenem-resistant Pseudomonas aeruginosa 86052 clinical isolate assessed as ceftazidime MIC at 8 uM by checkerboard assay (reference value: 64 ug/ml)
[25] = system: Pseudomonas aeruginosa; test: Potentiation of imipenem-induced antibacterial activity against carbapenem-resistant Pseudomonas aeruginosa PAO200 harboring mexAB-oprM efflux deficient mutant assessed as imipenem MIC at 8 uM by checkerboard assay (reference value: 4 ug/ml)
[26] = system: Pseudomonas aeruginosa; test: Potentiation of ceftazidime-induced antibacterial activity against carbapenem-resistant Pseudomonas aeruginosa 107092 clinical isolate assessed as ceftazidime MIC at 8 uM by checkerboard assay (reference value: 128 ug/ml)
[27] = system: Pseudomonas aeruginosa; test: Potentiation of ceftazidime-induced antibacterial activity against carbapenem-resistant Pseudomonas aeruginosa 108590 clinical isolate assessed as fold reduction in ceftazidime MIC at 8 uM in presence of beta-lactamase inhibitor, avi-bactam
[28] = system: Pseudomonas aeruginosa; test: Potentiation of ceftazidime-induced antibacterial activity against wild type Pseudomonas aeruginosa PAO1 assessed as ceftazidime MIC at 8 uM by checkerboard assay (reference value: 2 ug/ml)
[29] = system: Pseudomonas aeruginosa; test: Potentiation of imipenem-induced antibacterial activity against carbapenem-resistant Pseudomonas aeruginosa 264-104354 clinical isolate assessed as imipenem MIC at 8 uM by checkerboard assay (reference value: 16 ug/ml)
[30] = system: Pseudomonas aeruginosa; test: Potentiation of aztreonam-induced antibacterial activity against wild type Pseudomonas aeruginosa PAO1 assessed as aztreonam MIC at 8 uM by checkerboard assay (reference value: 4 ug/ml)
[31] = system: Pseudomonas aeruginosa; test: Potentiation of imipenem-induced antibacterial activity against carbapenem-resistant Pseudomonas aeruginosa 88949 clinical isolate assessed as imipenem MIC at 8 uM by checkerboard assay (reference value: 64 ug/ml)
[32] = system: Pseudomonas aeruginosa; test: Potentiation of aztreonam-induced antibacterial activity against carbapenem-resistant Pseudomonas aeruginosa 100036 clinical isolate assessed as aztreonam MIC at 8 uM by checkerboard assay (reference value: 16 ug/ml)

Structure (SMILES) | MIC [1] | fold change (FC) [2] | MIC [3] | MIC [4] | fold change (FC) [5] | MIC [6] | MIC [7] | fold change (FC) [8] | MIC [9] | MIC [10] | MIC [11] | MIC [12] | MIC [13] | MIC [14] | MIC [15] | MIC [16] | fold change (FC) [17] | MIC [18] | MIC [19] | fold change (FC) [20] | also measured
NC[C@H]1O[C@H](O[C@H]2[C@H](OCCCCc3cn(CCCCO[C@@H]4[C@@H](O[C@H]5O[C@H](CO)[C@@H](O)[C@H](N)[C@H]5O)[C@H](N)C[C@H](N)[C@H]4O[C@H]4O[C@H](CN)[C@@H](O)C[C@H]4N)nn3)[C@@H](O[C@H]3O[C@H](CO)[C@@H](O)[C@H](N)[C@H]3O)[C@H](N)C[C@@H]2N)[C@H](N)C[C@@H]1O.O=C(O)C(F)(F)F.O=C(O)C(F)(F)F.O=C(O)C(F)(F)F.O=C(O)C(F)(F)F.O=C(O)C(F)(F)F.O=C(O)C(F)(F)F.O=C(O)C(F)(F)F.O=C(O)C(F)(F)F.O=C(O)C(F)(F)F.O=C(O)C(F)(F)F | 16 µg/mL | 2 | 2 µg/mL | 16 µg/mL | 16 | 1 µg/mL | 1 µg/mL | 16 | 64 µg/mL | 0.06 µg/mL | 16 µg/mL | 16 µg/mL | 16 µg/mL | 0.03 µg/mL | 8 µg/mL | 4 µg/mL | 2 | 2 µg/mL | 16 µg/mL | 16 | MIC [21]: 1 µg/mL; MIC [22]: 128 µg/mL; MIC [23]: 8 µg/mL; MIC [24]: 64 µg/mL; MIC [25]: 1 µg/mL; MIC [26]: 32 µg/mL; fold change (FC) [27]: 16; MIC [28]: 0.25 µg/mL; MIC [29]: 4 µg/mL; MIC [30]: 0.25 µg/mL; MIC [31]: 4 µg/mL; MIC [32]: 2 µg/mL
Cl.Cl.Cl.Cl.Cl.NC[C@H]1O[C@H](O[C@H]2[C@H](OCCCCCCCCCCCCN3CCN(c4cc5c(cc4F)c(=O)c(C(=O)O)cn5C4CC4)CC3)[C@@H](O)[C@H](N)C[C@@H]2N)[C@H](N)C[C@@H]1O | 0.25 µg/mL | 2 | 4 µg/mL | 4 µg/mL | 16 | 2 µg/mL | 4 µg/mL | 16 | 4 µg/mL | 0.01 µg/mL | 0.25 µg/mL | 32 µg/mL | 2 µg/mL | 0.03 µg/mL | 1 µg/mL | 8 µg/mL | 2 | 8 µg/mL | 16 µg/mL | 16 | MIC [21]: 1 µg/mL; MIC [22]: 128 µg/mL; MIC [23]: 8 µg/mL; MIC [24]: 4 µg/mL; MIC [25]: 1 µg/mL; MIC [26]: 64 µg/mL; fold change (FC) [27]: 16; MIC [28]: 0.25 µg/mL; MIC [29]: 8 µg/mL; MIC [30]: 0.5 µg/mL; MIC [31]: 64 µg/mL; MIC [32]: 8 µg/mL
Cl.Cl.Cl.Cl.Cl.Cl.NC[C@H]1O[C@H](O[C@H]2[C@H](OCCCCCCCCCCCCN3CCN(c4cc5c(cc4F)c(=O)c(C(=O)O)cn5C4CC4)CC3)[C@@H](O[C@H]3O[C@H](CO)[C@@H](O)[C@H](N)[C@H]3O)[C@H](N)C[C@@H]2N)[C@H](N)C[C@@H]1O | 4 µg/mL | 2 | 4 µg/mL | 8 µg/mL | 16 | 0.5 µg/mL | 0.5 µg/mL | 16 | 8 µg/mL | 0.03 µg/mL | 4 µg/mL | 8 µg/mL | 2 µg/mL | 0.03 µg/mL | 0.5 µg/mL | 2 µg/mL | 2 | 4 µg/mL | 8 µg/mL | 16 | MIC [21]: 0.5 µg/mL; MIC [22]: 64 µg/mL; MIC [23]: 8 µg/mL; MIC [24]: 32 µg/mL; MIC [25]: 1 µg/mL; MIC [26]: 16 µg/mL; fold change (FC) [27]: 16; MIC [28]: 0.25 µg/mL; MIC [29]: 4 µg/mL; MIC [30]: 0.25 µg/mL; MIC [31]: 8 µg/mL; MIC [32]: 4 µg/mL
